Data as given in US20230212222A1 (ANYGEN CO., LTD., priority 2020, published 2023).

System: pERK and pPKA in 3T3-L1 cells
Test: pERK and pPKA expression by western blot in 3T3-L1 cells
Type: cell-based
Settings: FIG. 85
Description: In order to analyze the mechanism of lipolytic ability according to the HKFY derivative treatment in 3T3-L1 cells and WAT cells, the expression levels of pERK and pPKA were analyzed (FIGS. 85 and 86).
Specifically, protein was purified from 3T3L-1 cells (Korea Cell Line Bank) and WAT (tissue culture using mice purchased from Central Lab. Animal Inc.) treated with the HKFY derivatives, and then each antibody for pERK, ERK, pPKA, and PKA expressed in mice was used, and the expression level of each protein due to the derivatives was measured through western blot.

## CCCCCCCC(=O)NCCCC[C@H](NC(=O)[C@@H](N)Cc1cn(C(c2ccccc2)c2ccccc2)cn1)C(=O)N[C@H](Cc1ccc(C)cc1)C(=O)N[C@@H](Cc1ccc(O)cc1)C(=O)O [HKFY-34, ((R)-2-((S)-2-((S)-2-amino-3-(1-benzhydryl-1H-imidazol-4-yl)propanamido)-6-octanamidohexanamido)-3-(p-tolyl)propanoyl)-L-tyrosine]
  expression of pERK compared to ERK: increased
  expression of pPKA compared to PKA: increased
